# Patent publication US20020039780A1, “Salicyclic acid inducible genes and promoters” (priority 1998, published 2002)
# Legend:
# Assay type in all cases: cell-based
# G8-1 = test: Northern analysis of mRNA accumulation in cultured tobacco cells
# Method: (§1) FIG. 1. […] Northern analysis of genes identified by differential display. Gel-purified DNA fragments produced by ddPCR were either used directly for random-primed labeling and probing of Northern filters (e.g. C7-1, C6-1, and G9-2) or first subcloned and released by restriction digest. Each lane contains 1 μg of poly(A) mRNA from cultured tobacco cells treated with (1) H2O, 4 hr; (2) 200 μM SA, 4 hr; (3) 71 μM CHX, 5 hr; (4) 71 μM CHX, 5 hr plus 200 μM SA after 1 hr (4 hr total); (5) 20 μM SA, 2 hr; (7) 200 μM SA, 8 hr.
# (§2) FIG. 2. Time course of SA-induced gene expression. Northern analysis of representative differential display genes following treatment of cultured tobacco cells with SA for the indicated time (in hours, except lanes 2-4, which refer to 10, 20, and 30 min.). Twenty micrograms of total RNA was loaded per lane. Blots were hybridized with ddPCR fragments indicated at right or with the β-ATPase gene as a loading control probe. Autoradiogram exposure times were optimized for each gene. […] Labels on left indicate response class.
# (§3) FIG. 4. Specificity of induction among SA analogs and other signalling compounds. Northern analysis of representative differential display genes following treatment of tobacco cells with 100 μM or 1 mM (left and right side of triangles, respectively) of the following chemicals for 2-2.5 hr: salicylic acid (SA, lanes 4 and 5), acetylSA (ASA, lanes 6 and 7), benzoic acid (BA, lanes 8 and 9), 4-hydroxybenzoic (4HBA, lanes 10 and 11), thiamine (thia, lanes 12 and 13), methyljasmonate (MJ, lanes 14 and 15), abscisic acid (ABA, lanes 16 and 17), or 2,4-dichlorophenoxyacetic acid (2,4-D, lanes 18 and 19). Control treatments are H2O (H, lane 1), 1% ethanol (E, solvent concentration in MJ treatments, lane 2), or 1% DMSO (D, solvent concentration in 2,4D treatments, lane 3). Blots were hybridized with ddPCR fragments indicated at right or with the β-ATPase geneas a loading control probe. Autoradiogram exposure times were optimized for each gene. […] Labels on left indicate response class.
# (§4) FIG. 5. Dose response of C18-1 and G8-1 to a range of chemicals. Northern analysis of tobacco cell cultures with eight concentrations of SA, ASA, BA, 4HBA, Thia, MJ, ABA, 2,4-D, or H2O for 2-2.5 hr. Concentrations were 0.1, 1, 3, 10, 30, 100, 300 μM or […], as indicated.
# (§5) FIG. 6. […] Graphic representation of mRNA accumulation of G8-1 ( ), C18se -1 (♦), and IEGT (o) in response to a 2-2.5 hr incubation of cultured tobacco cells with a range of SA concentrations. RNA gel blots were quantitated by phosphorimaging analysis and normalized relative to the β-ATPase gene loading control (not shown).
# (§6) Differential display technology (Liang, P. and Pardee, A. B., Science 257: 967-971, 1992) was used to identify genes activated in the presence of SA, CHX and both. Therefore the absence or presence of SA, induction at 3 timepoints of SA-treatment, 2 different concentrations of SA and the effect of addition of CHX were measured. Seven treatments in total were performed. Treatment of tobacco BY-2 suspension cells and leaves and differential display PCR reactions were performed as described (Horvath and Chua (1996), Plant Mol. Biol. 31, 1061-1072).
# The specificity for induction by SA was tested by treating tobacco cells with a range of SA analogs and plant signalling compounds at 0.1 and 1 mM for approximately 2.5 h.
# C18-1/EREBP1 = test: as above
# Method: as §2, §3, §4, §5, §6
# The kinetics of induction were examined in detail through time course experiments for representative clones of each class (FIG. 2).
# (§7) The specificity for induction by SA was tested by treating tobacco cells with a range of SA analogs and plant signalling compounds at 0.1 and 1 mM for approximately 2.5 h. […] Several genes, including those for proteinase inhibitors and lipoxygenase (Hildmann, T. et al., Plant Cell 4: 1157-1170, 1992; Melan, M. A. et al., Plant Physiol. 101: 441-450, 1993; Xu, D. et al., Plant Mol. Biol. 22: 573-588, 1993) are known to be under dual regulation by MJ and ABA.
# A dose-response curve was made for SA. Therefore tobacco cells were treated with SA in a range of concentrations from 0.1 μM to 2 mM.
# [1] = test system: early SA-induced genes identified by differential display; test: Northern analysis of differential display genes in cultured tobacco cells
# Method: as §1, §3, §6, §7
# [2] = 0.1 and 1 mM, approximately 2.5 h
compound,measurement,setting,value
"O=C(O)c1ccccc1O [SA, salicylic acid]",G8-1 mRNA levels at 20 μM SA,G8-1; 20 μM SA,comparable to those at 200 μM
same,G8-1 induction at 0.1 mM versus 1 mM,G8-1; [2],equal or greater induction at 0.1 mM versus 1 mM
same,mRNA induction of G8-1 (class III),"G8-1; SA at 2, 4, 8 h, 71 μM CHX 5 hrs",rapid mRNA induction
same,time at which G8-1 is first detected,G8-1; SA time course,30 to 60 min
same,time at which G8-1 reaches a plateau,G8-1; SA time course,2 to 2.5 h
same,time for which G8-1 plateau is maintained,G8-1; SA time course,at least 12 h
same,C18-1/EREBP1 induction at 0.1 mM versus 1 mM,C18-1/EREBP1; [2],greater induction at 1mM
same,EC50,"C18-1/EREBP1; Nicotiana tabacum, tobacco cells, SA 0.1 μM to 2 mM, 2-2.5 hr, read-out: concentration of SA required for half of the maximum level of C18-1/EREBP1 expression",100 to 150 µM
same,response zone of C18-1/EREBP1 to SA concentration,C18-1/EREBP1; SA 0.1 μM to 2 mM,narrow response zone
same,time of decay of C18-1/EREBP1 mRNA to background levels,C18-1/EREBP1; SA time course,≤ 4.5 h
same,time of peak C18-1/EREBP1 mRNA,C18-1/EREBP1; SA time course,2 h
same,induction of most of the genes at 20 μM SA,[1]; 20 μM SA,little or none
same,induction of most of the genes at 200 μM SA,[1]; 200 μM SA,clear induction
